# Tests used:
# Assay in all cases: Bliss excess, mean over the matrix (fraction); higher = more synergy
# 769-P (Kidney Carcinoma) = test system: 769-P (Kidney Carcinoma)
# Procedure, shortened: (§1)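 Bliss excess equals the observed combination effect minus the expected value EA + EB − EA·EB, where EA and EB are the effects of each agent alone. Combination Emax is the second-highest inhibition within the matrix. Inhibition was scaled from CellTiter-Glo 2.0 luminescence, with 0 set by vehicle wells and 1 by blank wells, after 72 hours of two-drug dosing of cells plated in 1536-well plates.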
# [1] = test system: A2780 (Ovarian Carcinoma)
# Procedure, shortened: as §1
# [2] = test system: CGTH-W-1 (Thyroid Gland Carcinoma)
# Procedure, shortened: as §1
# EB2 (Burkitt's Lymphoma) = test system: EB2 (Burkitt's Lymphoma)
# Procedure, shortened: as §1
# [3] = test system: HCC1395 (Breast Carcinoma)
# Procedure, shortened: as §1
# HCC70 (Breast Carcinoma) = test system: HCC70 (Breast Carcinoma)
# Procedure, shortened: as §1
# IM-9 (Non-Cancerous) = test system: IM-9 (Non-Cancerous)
# Procedure, shortened: as §1
# [4] = test system: JHH-2 (Hepatocellular Carcinoma)
# Procedure, shortened: as §1
# [5] = test system: JHU-022 (Oral Cavity Carcinoma)
# Procedure, shortened: as §1
# [6] = test system: KYSE-220 (Esophageal Squamous Cell Carcinoma)
# Procedure, shortened: as §1
# [7] = test system: LU-165 (Small Cell Lung Carcinoma)
# Procedure, shortened: as §1
# [8] = test system: MDA-MB-436 (Breast Carcinoma)
# Procedure, shortened: as §1
# [9] = test system: MHH-ES-1 (Ewing's Sarcoma)
# Procedure, shortened: as §1
# [10] = test system: NCI-H1703 (Squamous Cell Lung Carcinoma)
# Procedure, shortened: as §1
# [11] = test system: NCI-H441 (Lung Adenocarcinoma)
# Procedure, shortened: as §1
# PEO1 (Ovarian Carcinoma) = test system: PEO1 (Ovarian Carcinoma)
# Procedure, shortened: as §1
# [12] = test system: SK-HEP-1 (Hepatocellular Carcinoma)
# Procedure, shortened: as §1
# [13] = test system: SW620 (Colorectal Carcinoma)
# Procedure, shortened: as §1
# [14] = test system: UACC-812 (Breast Carcinoma)
# Procedure, shortened: as §1
# WM1552C (Melanoma) = test system: WM1552C (Melanoma)
# Procedure, shortened: as §1
SMILES,Bliss excess (769-P (Kidney Carcinoma)),Bliss excess [1],Bliss excess [2],Bliss excess (EB2 (Burkitt's Lymphoma)),Bliss excess [3],Bliss excess (HCC70 (Breast Carcinoma)),Bliss excess (IM-9 (Non-Cancerous)),Bliss excess [4],Bliss excess [5],Bliss excess [6],Bliss excess [7],Bliss excess [8],Bliss excess [9],Bliss excess [10],Bliss excess [11],Bliss excess (PEO1 (Ovarian Carcinoma)),Bliss excess [12],Bliss excess [13],Bliss excess [14],Bliss excess (WM1552C (Melanoma))
"Cc1cc2ncnn2cc1Nc1ncc2c(n1)n(C1CCOCC1)c(=O)n2C [AZD7648] + CCN(CCO)CCCOc1ccc2c(Nc3cc(CC(=O)Nc4cccc(F)c4)[nH]n3)ncnc2c1 [AZD2811] (first compound max 10 µM, 7x7, partner max 1 µM)",0.0313,0.0122,0.0363,0.0607,-0.0181,-0.0203,-0.0432,-0.0763,0.028,0.0544,-0.0339,-0.0452,0.0263,-0.0392,-0.0502,-0.0141,0.0517,0.0357,0.0276,0.0025
"CN(CCO)CC[C@H](CSc1ccccc1)Nc1ccc(S(=O)(=O)NC(=O)c2ccc(N3CCC([C@@H](O)c4ccccc4-c4ccc(Cl)cc4)CC3)cc2)cc1S(=O)(=O)C(F)(F)F [AZD4320] + CCN(CCO)CCCOc1ccc2c(Nc3cc(CC(=O)Nc4cccc(F)c4)[nH]n3)ncnc2c1 [AZD2811] (first compound max 1 µM, 7x7, partner max 1 µM)",0.0052,-0.0048,–,0.0254,0.0121,0.0345,-0.0509,-0.0489,-0.0183,0.0129,-0.0081,-0.0619,0.14,0.0384,-0.0407,-0.0249,0.0932,0.0931,-0.0194,-0.0152
"COc1nnc2ccc(N3CCC(c4ccc(OCCN5CCN(C)C(=O)[C@H]5C)cc4)CC3)nn12 [AZD5153] + CN(CC[C@H](CSC1=CC=CC=C1)NC2=C(C=C(C=C2)S(=O)(=O)NC(=O)C3=CC=C(C=C3)N4CCC(CC4)[C@H](C5=CC=CC=C5C6=CC=C(C=C6)Cl)O)S(=O)(=O)C(F)(F)F)CCO [AZD4320] (first compound max 1 µM, 7x7, partner max 1 µM)",–,–,–,–,–,–,–,–,–,–,–,–,0.0258,–,–,–,–,0.036,–,–
"CC(=O)c1c(C)c2cnc(Nc3ccc(N4CCNCC4)cn3)nc2n(C2CCCC2)c1=O [Palbociclib] + CN(CC[C@H](CSC1=CC=CC=C1)NC2=C(C=C(C=C2)S(=O)(=O)NC(=O)C3=CC=C(C=C3)N4CCC(CC4)[C@H](C5=CC=CC=C5C6=CC=C(C=C6)Cl)O)S(=O)(=O)C(F)(F)F)CCO [AZD4320] (first compound max 10 µM, 7x7, partner max 1 µM)",–,–,–,–,–,–,–,–,–,–,–,–,0.0028,–,–,–,–,-0.0622,–,–
"C[C@@H](c1ccc2nccn2c1)n1nnc2ncc(-c3cnn(C)c3)nc21 [Savolitinib] + CN(CC[C@H](CSC1=CC=CC=C1)NC2=C(C=C(C=C2)S(=O)(=O)NC(=O)C3=CC=C(C=C3)N4CCC(CC4)[C@H](C5=CC=CC=C5C6=CC=C(C=C6)Cl)O)S(=O)(=O)C(F)(F)F)CCO [AZD4320] (first compound max 1 µM, 7x7, partner max 1 µM)",–,–,–,–,–,–,–,–,–,–,–,–,-0.0154,–,–,–,–,-0.0642,–,–
"N#Cc1cnc(Nc2cc(NC[C@H]3CNCCO3)c(C(F)(F)F)cn2)cn1 [SRA737] + Nc1ccn([C@@H]2O[C@H](CO)[C@@H](O)C2(F)F)c(=O)n1 [Gemcitabine] (first compound max 10 µM, 7x7, partner max 0.3 µM)",-0.0313,0.0099,0.0472,-0.025,0.0226,–,0.0254,-0.0087,0.008,-0.0155,-0.0375,-0.0067,0.0613,-0.012,-0.0336,0.113,-0.0002,0.058,-0.054,-0.0206
"Cc1nc(Nc2ncc(C(=O)Nc3c(C)cccc3Cl)s2)cc(N2CCN(CCO)CC2)n1 [Dasatinib] + CC(=O)Nc1cccc(-n2c(=O)n(C3CC3)c(=O)c3c(Nc4ccc(I)cc4F)n(C)c(=O)c(C)c32)c1 [Trametinib] (first compound max 2 µM, 7x7, partner max 1 µM)",-0.0331,0.029,-0.0129,0.0027,-0.0332,-0.0217,-0.0439,-0.076,-0.0483,-0.0522,-0.04,-0.044,-0.0487,-0.0483,0.024,-0.0433,-0.0294,-0.0107,–,0.0003

# — the supplement of paper PMC11061612
